Measurements: patent US12252524B2, “GIP/GLP1 co-agonist compounds” (Eli Lilly and Company, priority 2018, dated 2025)
Numbered stars: 1 amine (or outer) side, 2 acyl side, 3 side chain; on linkers, the order of the positions; unused ones are H or OH. Square brackets hold non-standard residues; d marks the D form. Side chains are listed from the residue outwards. Peptide text beside a SMILES is read from it. * marks the point of attachment. C20 diacid = O=C(O)CCCCCCCCCCCCCCCCCCC(=O)*; γGlu = O=C(O)[C@H](CCC(=O)[*:2])N[*:1]; αMeY = C[C@](N)(Cc1ccc(O)cc1)C(=O)O; αMeL = CC(C)C[C@](C)(N)C(=O)O; AEEA = NCCOCCOCC(=O)O; Aib = CC(C)(N)C(=O)O

Key:
human Gcg receptor = target: T1, human Gcg receptor (Homo sapiens, UniProt P47871); test: [125I]-Glucagon binding (SPA), human Gcg receptor; settings: read-out: hGLcgR Ki, nM (SEM, n)
T1 construct: expressed in transfected cells; crude membranes
T1 sequence (P47871 26-477): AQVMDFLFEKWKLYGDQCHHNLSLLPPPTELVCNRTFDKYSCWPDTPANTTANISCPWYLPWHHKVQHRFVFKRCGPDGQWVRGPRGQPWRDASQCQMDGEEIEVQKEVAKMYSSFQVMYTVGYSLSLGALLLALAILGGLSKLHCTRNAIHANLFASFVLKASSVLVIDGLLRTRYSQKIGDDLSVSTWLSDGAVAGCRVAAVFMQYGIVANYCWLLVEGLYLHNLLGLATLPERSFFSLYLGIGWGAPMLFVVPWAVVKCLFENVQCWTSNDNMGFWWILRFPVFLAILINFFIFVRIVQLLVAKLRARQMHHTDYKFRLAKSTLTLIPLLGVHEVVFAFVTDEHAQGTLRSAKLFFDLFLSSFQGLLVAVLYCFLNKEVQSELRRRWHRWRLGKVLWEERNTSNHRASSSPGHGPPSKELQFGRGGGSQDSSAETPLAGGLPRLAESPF
Method in brief: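 Crude membranes from cells expressing the receptor, prepared by hypotonic lysis in 50 mM Tris HCl pH 7.5 with protease inhibitors, homogenization and differential centrifugation, were used in a WGA-bead SPA. Binding buffer: 25 mM HEPES pH 7.4, 2.5 mM CaCl2, 1 mM MgCl2, bacitracin, Tween-20.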

human GLP-1R [1] = target: T2, human GLP-1R (Homo sapiens, UniProt P43220); test: [125I]-GLP-1 binding (SPA), human GLP-1 receptor; design: expressed in transfected cells; crude membranes; settings: read-out: hGLP1R Ki, (nM) (SEM, n)
T2 sequence (P43220 24-463): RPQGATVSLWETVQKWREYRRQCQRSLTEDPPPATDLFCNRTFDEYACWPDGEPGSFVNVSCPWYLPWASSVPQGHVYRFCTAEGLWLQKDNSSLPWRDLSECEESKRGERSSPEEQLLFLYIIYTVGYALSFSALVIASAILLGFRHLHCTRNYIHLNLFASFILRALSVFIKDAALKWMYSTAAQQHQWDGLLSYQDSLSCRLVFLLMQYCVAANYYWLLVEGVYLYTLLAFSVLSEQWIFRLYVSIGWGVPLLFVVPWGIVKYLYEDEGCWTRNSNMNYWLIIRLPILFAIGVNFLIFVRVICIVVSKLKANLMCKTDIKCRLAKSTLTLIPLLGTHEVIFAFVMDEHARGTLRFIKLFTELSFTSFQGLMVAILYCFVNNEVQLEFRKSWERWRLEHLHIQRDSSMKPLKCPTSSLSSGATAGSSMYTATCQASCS
Method in brief: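 Crude-membrane binding assay; one membrane prep included 1 mM MgCl2 and 25 units/ml DNAse I during lysis. Assay buffer at pH 7.4 contains 0.1% (w/v) bacitracin and 0.003% (w/v) TWEEN-20. Ki is reported as geometric mean.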

[2] = target: T3, gastric inhibitory peptide receptor (GIPR) (Homo sapiens, UniProt P48546); test: cAMP pharmacological functional assay in presence of casein, hGIPR; format: cell-based; settings: HEK293 cells expressing hGIPR, 0.1% Casein, geometric mean; read-out: hGIPR cAMP Rel EC50 nM (SEM, n)
T3 sequence (P48546 22-466): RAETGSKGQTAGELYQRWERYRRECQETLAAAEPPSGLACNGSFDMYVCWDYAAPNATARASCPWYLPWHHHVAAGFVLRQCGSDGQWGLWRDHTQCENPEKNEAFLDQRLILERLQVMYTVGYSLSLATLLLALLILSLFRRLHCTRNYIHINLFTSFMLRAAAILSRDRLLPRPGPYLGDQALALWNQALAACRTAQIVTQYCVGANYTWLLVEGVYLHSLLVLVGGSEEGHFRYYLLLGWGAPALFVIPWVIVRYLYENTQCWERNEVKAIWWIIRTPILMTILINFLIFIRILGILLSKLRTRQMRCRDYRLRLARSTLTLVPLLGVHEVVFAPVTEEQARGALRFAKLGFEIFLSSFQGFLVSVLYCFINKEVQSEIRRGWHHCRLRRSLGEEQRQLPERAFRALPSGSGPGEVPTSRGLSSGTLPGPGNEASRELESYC

human GLP-1R [3] = target: T2, human GLP-1R; test: GLP-1R CHO cell β-arrestin recruitment assay; format: cell-based; design: host or cells: CHO-K1 PathHunter cells, assay-ready frozen; settings: for EC50: CHO-K1 cells, PathHunter β-arrestin-2 recruitment, 0.1% casein, read-out: hGLP1R B-Arrestin2 Rel EC50 uM (SEM, n); for hGLP1R B-Arrestin2 % Top: normalized to GLP-1 maximum control
Method in brief: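 PathHunter CHO-K1 cells with ProLink-tagged human GLP-1R and enzyme-acceptor-tagged β-arrestin-2 treated with serially diluted peptides in assay buffer containing 0.1% hydrolyzed casein, 90 min at 37 °C.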

human GIP receptor = target: T4, human GIP receptor (Homo sapiens, UniProt P48546); test: [125I]-GIP binding (SPA), human GIP receptor; settings: read-out: hGIPR Ki, nM (SEM, n)
T4 construct: expressed in transfected cells; crude membranes
T4 sequence (P48546 22-466): T3 sequence (P48546 22-466)

[4] = target: human GLP-1 receptor (GLP-1R) (Homo sapiens, UniProt P43220); test: cAMP pharmacological functional assay in presence of casein, hGLP-1R; format: cell-based; settings: HEK293 cells expressing hGLP-1R, 0.1% Casein, geometric mean; read-out: hGLP1R cAMP Rel EC50 nM (SEM, n)
human GLP-1 receptor (GLP-1R), sequence (P43220 24-463): as the sequence (P43220 24-463) above

human GLP-1R [5] = target: T2, human GLP-1R; test: GLP-1R HEK293 cell membrane [35S]GTPγS binding assay; format: biochemical; design: expressed in transfected cells; host or cells: HEK293 cells expressing human GLP-1R; membranes; settings: HEK293 cell membranes expressing human GLP-1R, [35S]GTPγS binding; read-out: hGLP1R GTPgS Rel EC50 nM (SEM, n)
Method in brief: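 Membranes from HEK293 cells expressing the receptor incubated with peptide and […] [35S]GTPγS in HEPES pH 7.4 buffer with NaCl, MgCl2, saponin and BSA, 30 min at room temperature. Gαs-bound label captured by anti-Gαs antibody/SPA beads and counted; EC50 from four-parameter logistic fit.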

CC[C@H](C)[C@H](NC(=O)[C@H](CC(C)C)NC(=O)[C@](C)(Cc1ccc(O)cc1)NC(=O)[C@H](CCC(=O)O)NC(=O)[C@@H](NC(=O)[C@H](Cc1ccccc1)NC(=O)[C@H](CCC(=O)O)NC(=O)C(C)(C)NC(=O)[C@H](CCC(N)=O)NC(=O)[C@H](C)NC(=O)[C@H](CCCCNC(=O)COCCOCCNC(=O)COCCOCCNC(=O)CC[C@H](NC(=O)CCCCCCCCCCCCCCCCCCC(=O)O)C(=O)O)NC(=O)[C@H](CCCCN)NC(=O)[C@H](CC(=O)O)NC(=O)[C@H](CC(C)C)NC(=O)[C@](C)(CC(C)C)NC(=O)[C@@H](NC(=O)[C@H](CO)NC(=O)[C@H](Cc1ccc(O)cc1)NC(=O)[C@H](CC(=O)O)NC(=O)[C@H](CO)NC(=O)[C@@H](NC(=O)[C@H](Cc1ccccc1)NC(=O)[C@@H](NC(=O)CNC(=O)[C@H](CCC(=O)O)NC(=O)C(C)(C)NC(=O)[C@@H](N)Cc1ccc(O)cc1)[C@@H](C)O)[C@@H](C)O)[C@@H](C)CC)[C@@H](C)CC)C(=O)N[C@@H](C)C(=O)NCC(=O)NCC(=O)N1CCC[C@H]1C(=O)N[C@@H](CO)C(=O)N[C@@H](CO)C(=O)NCC(=O)N[C@@H](C)C(=O)N1CCC[C@H]1C(=O)N1CCC[C@H]1C(=O)N1CCC[C@H]1C(=O)N[C@@H](CO)C(N)=O [Example 367] (H-Y[Aib]EGTFTSDYSI[αMeL]LDKK([AEEA-AEEA-γGlu-C20 diacid])AQ[Aib]EFIE[αMeY]LIAGGPSSGAPPPS-NH2)
Ki (human Gcg receptor): 777 nM | Ki (human GLP-1R [1]): 0.809 nM | EC50 [2]: 0.0179 nM | EC50 (human GLP-1R [3]): 0.00666 µM | hGLP1R B-Arrestin2 % Top (human GLP-1R [3]): 70.6% | Ki (human GIP receptor): 0.0282 nM | EC50 [4]: 0.0641 nM | EC50 (human GLP-1R [5]): 0.289 nM

CC[C@H](C)[C@H](NC(=O)[C@H](CC(C)C)NC(=O)[C@H](Cc1ccc(O)cc1)NC(=O)[C@H](CCC(=O)O)NC(=O)[C@@H](NC(=O)[C@H](Cc1ccccc1)NC(=O)[C@H](CCC(=O)O)NC(=O)C(C)(C)NC(=O)[C@H](CCC(N)=O)NC(=O)[C@H](C)NC(=O)[C@H](CCCCNC(=O)COCCOCCNC(=O)COCCOCCNC(=O)CC[C@H](NC(=O)CCCCCCCCCCCCCCCCCCC(=O)O)C(=O)O)NC(=O)[C@H](CCCCN)NC(=O)[C@H](CC(=O)O)NC(=O)[C@H](CC(C)C)NC(=O)[C@](C)(CC(C)C)NC(=O)[C@@H](NC(=O)[C@H](CO)NC(=O)[C@H](Cc1ccc(O)cc1)NC(=O)[C@H](CC(=O)O)NC(=O)[C@H](CO)NC(=O)[C@@H](NC(=O)[C@H](Cc1ccccc1)NC(=O)[C@@H](NC(=O)CNC(=O)[C@H](CCC(=O)O)NC(=O)C(C)(C)NC(=O)[C@H](N)Cc1ccc(O)cc1)[C@@H](C)O)[C@@H](C)O)[C@@H](C)CC)[C@@H](C)CC)C(=O)N[C@@H](C)C(=O)NCC(=O)NCC(=O)N1CCC[C@H]1C(=O)N[C@@H](CO)C(=O)N[C@@H](CO)C(=O)NCC(=O)N[C@@H](C)C(=O)N1CCC[C@H]1C(=O)N1CCC[C@H]1C(=O)N1CCC[C@H]1C(=O)N[C@@H](CO)C(N)=O [Example 290] (H-[dY][Aib]EGTFTSDYSI[αMeL]LDKK([AEEA-AEEA-γGlu-C20 diacid])AQ[Aib]EFIEYLIAGGPSSGAPPPS-NH2)
Ki (human Gcg receptor): 308 nM | Ki (human GLP-1R [1]): 2.44 nM | EC50 [2]: 0.0629 nM | EC50 (human GLP-1R [3]): 0.0238 µM | hGLP1R B-Arrestin2 % Top (human GLP-1R [3]): 20.0% | Ki (human GIP receptor): 0.0617 nM | EC50 [4]: 0.179 nM | EC50 (human GLP-1R [5]): 0.466 nM
